From US8247211B2, “Glycopeptide antibiotics” (American Cyanamid Company, priority 2001, dated 2012)

Columns and labels:
Experiment in all cases: In vitro antibacterial evaluation: minimum inhibitory concentration (MIC), broth dilution method
Format in all cases: cell-based
Staphylococcus sp. = conditions: 18 hours at 35° C.
Procedure, shortened: (§1)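 Following NCCLS approved standard M7-A2, compounds are serially diluted from 64 to 0.06 μg/mL in Muller-Hinton II […] and inoculated at 5×10^5 CFU/mL; the MIC is the minimum concentration at which growth is inhibited.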

Enterococcus sp. = test system: Enterococcus sp.
Procedure, shortened: as §1

Escherichia coli [1] = test system: Escherichia coli
Procedure, shortened: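 NCCLS M7-A2 broth dilution with Mueller-Hinton II, testing 64-0.06 μg/mL antibiotic against 5×10^5 CFU/mL inocula. Test strains include recent methicillin-, penicillin- or vancomycin-resistant clinical isolates. MIC is the lowest concentration preventing growth.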

Escherichia coli [2] = test system: Escherichia coli; remark: listed apart in the source

CCC(C)C(=O)OC1C(CO)OC(OC2C(CO)OC(Oc3ccc(CC4NC(=O)C(C(C)c5ccccc5)NC(=O)CNC(=O)C(CO)NC(=O)C(C(O)C5CNC(=N)N5C5OC(CO)C(O)C(O)C5O)NC(=O)C(C(O)C5CNC(=N)N5)NC4=O)cc3)C(O)C2O)C(O)C1O (stereo not drawn) [Example 278c, Cyclo[glycyl-β-methylphenylalanyl-O-[4-O-[4-O-(2-methylbutanoyl)hexopyranosyl]hexopyranosyl]tyrosyl-3-(2-iminoimidazolidin-4-yl)seryl-3-(3-hexopyranosyl-2-iminoimidazolidin-4-yl)serylseryl]]
32 µg/mL: MIC Enterococcus avium (GC 4558) (Enterococcus sp.) | MIC Enterococcus faecalis (ATCC 29212) (Enterococcus sp.) | MIC Enterococcus faecalis (GC 4553) (Enterococcus sp.) | MIC Enterococcus faecalis (GC 4554) (Enterococcus sp.) | MIC Enterococcus faecalis (GC 6189) (Enterococcus sp.; Enterococcus faecalis (GC 6189)) | MIC Enterococcus faecium (GC 2243) (Enterococcus sp.) | MIC Enterococcus faecium (GC 4556) (Enterococcus sp.)
4 µg/mL: MIC Coagulase Negative Staphylococcus (GC 4547) (Staphylococcus sp.) | MIC Coagulase Negative Staphylococcus (GC 4547) (Staphylococcus sp.; broth dilution) | MIC Staphylococcus aureus (ATCC 29213) (Staphylococcus sp.) | MIC Staphylococcus aureus (ATCC 29213) (Staphylococcus sp.; broth dilution) | MIC Staphylococcus aureus (GC 4541) (Staphylococcus sp.) | MIC Staphylococcus aureus (GC 4541) (Staphylococcus sp.; broth dilution) | MIC Staphylococcus aureus (GC 4542) (Staphylococcus sp.) | MIC Staphylococcus aureus (GC 4542) (Staphylococcus sp.; broth dilution) | MIC Staphylococcus aureus (GC 4544) (Staphylococcus sp.) | MIC Staphylococcus aureus (GC 4544) (Staphylococcus sp.; broth dilution) | MIC Staphylococcus aureus (GC 4545) (Staphylococcus sp.) | MIC Staphylococcus aureus (GC 4545) (Staphylococcus sp.; broth dilution) | MIC Staphylococcus aureus-SMITH (GC 4543) (Staphylococcus sp.) | MIC Staphylococcus aureus-SMITH (GC 4543) (Staphylococcus sp.; broth dilution)
2 µg/mL: MIC Coagulase Negative Staphylococcus (GC 4548) (Staphylococcus sp.) | MIC Coagulase Negative Staphylococcus (GC 4548) (Staphylococcus sp.; broth dilution) | MIC Coagulase Negative Staphylococcus (GC 4549) (Staphylococcus sp.) | MIC Coagulase Negative Staphylococcus (GC 4549) (Staphylococcus sp.; broth dilution) | MIC Coagulase Negative Staphylococcus (GC 6257) (Staphylococcus sp.) | MIC Coagulase Negative Staphylococcus (GC 6257) (Staphylococcus sp.; broth dilution) | MIC Staphylococcus aureus (GC 3051) (Staphylococcus sp.) | MIC Staphylococcus aureus (GC 3051) (Staphylococcus sp.; broth dilution) | MIC Staphylococcus haemolyticus (GC 4546) (Staphylococcus sp.) | MIC Staphylococcus haemolyticus (GC 4546) (Staphylococcus sp.; broth dilution) | MIC Escherichia coli (GC 4560) (Escherichia coli [1])
>64 µg/mL: MIC Escherichia coli (GC 4559) (Escherichia coli [1]) | MIC Escherichia coli (ATCC 25922) (Escherichia coli [2])
8 µg/mL: MIC Coagulase Negative Staphylococcus (GC 4551) (Staphylococcus sp.) | MIC Coagulase Negative Staphylococcus (GC 4551) (Staphylococcus sp.; broth dilution) | MIC Staphylococcus aureus (GC 1131) (Staphylococcus sp.) | MIC Staphylococcus aureus (GC 1131) (Staphylococcus sp.; broth dilution) | MIC Staphylococcus aureus (GC 3053) (Staphylococcus sp.) | MIC Staphylococcus aureus (GC 3053) (Staphylococcus sp.; broth dilution) | MIC Enterococcus faecium (GC 4557) (Enterococcus sp.)

CC(=O)OCC1OC(OC2C(CO)OC(Oc3ccc(CC4NC(=O)C(C(C)c5ccccc5)NC(=O)CNC(=O)C(CO)NC(=O)C(C(O)C5CNC(=N)N5C5OC(CO)C(O)C(O)C5O)NC(=O)C(C(O)C5CNC(=N)N5)NC4=O)cc3)C(O)C2O)C(O)C(OC(=O)CCC(C)C)C1O (stereo not drawn) [Example 270b, Cyclo[glycyl-β-methylphenylalanyl-O-[4-O-[6-O-acetyl-3-O-(4-methylpentanoyl)hexopyranosyl]hexopyranosyl]tyrosyl-3-(2-iminoimidazolidin-4-yl)seryl-3-(3-hexopyranosyl-2-iminoimidazolidin-4-yl)serylseryl]]
32 µg/mL: MIC Enterococcus avium (GC 4558) (Enterococcus sp.) | MIC Enterococcus faecalis (ATCC 29212) (Enterococcus sp.) | MIC Enterococcus faecalis (GC 4553) (Enterococcus sp.) | MIC Enterococcus faecalis (GC 4554) (Enterococcus sp.) | MIC Enterococcus faecium (GC 2243) (Enterococcus sp.) | MIC Enterococcus faecium (GC 4556) (Enterococcus sp.)
4 µg/mL: MIC Coagulase Negative Staphylococcus (GC 4547) (Staphylococcus sp.) | MIC Coagulase Negative Staphylococcus (GC 4547) (Staphylococcus sp.; broth dilution) | MIC Coagulase Negative Staphylococcus (GC 4548) (Staphylococcus sp.) | MIC Coagulase Negative Staphylococcus (GC 4548) (Staphylococcus sp.; broth dilution) | MIC Coagulase Negative Staphylococcus (GC 4549) (Staphylococcus sp.) | MIC Coagulase Negative Staphylococcus (GC 4549) (Staphylococcus sp.; broth dilution) | MIC Coagulase Negative Staphylococcus (GC 4551) (Staphylococcus sp.) | MIC Coagulase Negative Staphylococcus (GC 4551) (Staphylococcus sp.; broth dilution) | MIC Staphylococcus aureus (GC 4545) (Staphylococcus sp.) | MIC Staphylococcus aureus (GC 4545) (Staphylococcus sp.; broth dilution) | MIC Staphylococcus aureus-SMITH (GC 4543) (Staphylococcus sp.) | MIC Staphylococcus aureus-SMITH (GC 4543) (Staphylococcus sp.; broth dilution) | MIC Staphylococcus haemolyticus (GC 4546) (Staphylococcus sp.) | MIC Staphylococcus haemolyticus (GC 4546) (Staphylococcus sp.; broth dilution) | MIC Escherichia coli (GC 4560) (Escherichia coli [1])
>64 µg/mL: MIC Escherichia coli (GC 4559) (Escherichia coli [1]) | MIC Escherichia coli (ATCC 25922) (Escherichia coli [2])
8 µg/mL: MIC Staphylococcus aureus (ATCC 29213) (Staphylococcus sp.) | MIC Staphylococcus aureus (ATCC 29213) (Staphylococcus sp.; broth dilution) | MIC Staphylococcus aureus (GC 1131) (Staphylococcus sp.) | MIC Staphylococcus aureus (GC 1131) (Staphylococcus sp.; broth dilution) | MIC Staphylococcus aureus (GC 4541) (Staphylococcus sp.) | MIC Staphylococcus aureus (GC 4541) (Staphylococcus sp.; broth dilution) | MIC Staphylococcus aureus (GC 4542) (Staphylococcus sp.) | MIC Staphylococcus aureus (GC 4542) (Staphylococcus sp.; broth dilution) | MIC Staphylococcus aureus (GC 4544) (Staphylococcus sp.) | MIC Staphylococcus aureus (GC 4544) (Staphylococcus sp.; broth dilution) | MIC Enterococcus faecium (GC 4557) (Enterococcus sp.)
